Source: publication PMC4700930 (Nature, 2015)
Read-outs that look alike come from different tables or passages of the source. Numbered stars: 1 amine (or outer) side, 2 acyl side, 3 side chain; on linkers, the order of the positions; unused ones are H or OH. Bridge positions count the residues as written; N and C are the ends. Square brackets hold non-standard residues; d marks the D form. Peptide text beside a SMILES is read from it. I, II: the chains in the order shown. Actinocin(9to1) = Cc1c2oc3c(C)ccc(C(=O)[*:1])c3nc-2c(C(=O)[*:2])c(N)c1=O; NMeV = CN[C@H](C(=O)O)C(C)C; Sar = CNCC(=O)O

Legend:
[1] = test system: GFP-transfected P. berghei ANKA strain; settings: for Survival days / Activity %: oral single dose
[2] = test system: DNA/RNA synthesis in P. falciparum 3D7; experiment: Metabolic labelling with [3H]-hypoxanthine; type: cell-based, Plasmodium falciparum; settings: sensitive and drug-resistant parasites
[3] = Plasma protein binding, equilibrium dialysis; type: in vitro ADME, mouse, rat, human
[4] = test system: DDD107498-resistant P. falciparum lines; experiment: SYBR Green growth assay on DDD107498-selected resistant lines; type: cell-based; settings: Plasmodium falciparum
[5] = test system: P. vivax clinical isolates; experiment: Ex vivo P. vivax field isolates assay; type: cell-based, Plasmodium vivax; settings: read-out: median EC50, P. vivax clinical isolates, isolates from Papua (Indonesia)
[6] = test system: luciferase-expressing P. berghei sporozoites; settings: blood sampling from the mice
[7] = test system: Plasmodium falciparum strain 3D7; experiment: P. falciparum; type: cell-based
Mouse pharmacokinetics = type: in vivo; settings: Intravenous 1 mg/kg
[8] = test system: liver schizont forms of P. yoelii; experiment: P. yoelii liver stage assay; type: cell-based; settings: Plasmodium yoelii, read-out: EC50, P. yoelii liver stage, liver schizont forms
P. falciparum = experiment: Parasite Reduction Ratio
Dog pharmacokinetics = type: in vivo; settings: Intravenous 1 mg/kg
P. berghei ookinetes = experiment: P. berghei ookinete development assay; settings: Plasmodium berghei, read-out: EC50, P. berghei ookinete
P. berghei (PbGFPCON507) = type: in vivo, Plasmodium berghei
[9] = test system: MRC5 (human foetal lung fibroblasts); experiment: Cytotoxicity against mammalian cells, resazurin assay, MRC5; type: cell-based
[10] = test system: P. falciparum Pf3D7^0087/N9; type: in vivo, Plasmodium falciparum
[11] = test system: P. falciparum clinical isolates; experiment: Ex vivo P. falciparum field isolates assay; type: cell-based; settings: Plasmodium falciparum
P. falciparum NF54 = experiment: Stage specificity studies in P. falciparum, synchronised cultures; type: cell-based, Plasmodium falciparum; settings: 4nM for 24 h
Rat pharmacokinetics = type: in vivo
[12] = test system: P. falciparum strains K1, W2, 7G8, TM90C2A, D6, V1/S, NF54; experiment: P. falciparum; type: cell-based, Plasmodium falciparum; settings: compared with 3D7
P. berghei liver stages = experiment: Plasmodium berghei luciferase liver stage assay
[13] = 30 mg/kg, murine P. berghei model
[14] = male, Sprague Dawley, rat, blood, po, 5 mg/kg

CCN(CC)CCCC(C)Nc1ccnc2cc(Cl)ccc12 (stereo not drawn) [Chloroquine]
Survival days ([1]; 3 mg/kg): 7 days
Survival days ([1]; 10 mg/kg): 7 days
Survival days ([1]; 30 mg/kg): 10 days

C[C@H]1[C@@H](O)O[C@@H]2O[C@@]3(C)CC[C@H]4[C@H](C)CC[C@@H]1[C@@]24OO3 [Dihydroartemsinin]
Activity % ([1]; 3 mg/kg): 61%
Survival days ([1]; 3 mg/kg): 7 days
Activity % ([1]; 10 mg/kg): 97%
Survival days ([1]; 10 mg/kg): 6 days
Survival days ([1]; 30 mg/kg): 7 days
Activity % [1, 13]: 99%

OC(c1cc(C(F)(F)F)nc2c(C(F)(F)F)cccc12)C1CCCCN1 (stereo not drawn) [Mefloquine]
Activity % ([1]; 3 mg/kg): <40%
Survival days ([1]; 3 mg/kg): 7 days
Activity % ([1]; 10 mg/kg): 95%
Survival days ([1]; 10 mg/kg): 16 days
Survival days ([1]; 30 mg/kg): 22 days

C[C@@H]1C[C@@H]([C@H](O)CC2CC(=O)NC(=O)C2)C(=O)[C@@H](C)C1 [cycloheximide]
effect on DNA/RNA biosynthesis ([3H]-hypoxanthine incorporation) [2]: minimal effects

CO[C@H]1O[C@@H]2O[C@@]3(C)CC[C@H]4[C@H](C)CC[C@@H]([C@H]1C)[C@@]24OO3 [Artemether]
Activity % ([1]; 3 mg/kg): 59%
Survival days ([1]; 3 mg/kg): 6 days
Activity % ([1]; 10 mg/kg): 89%
Survival days ([1]; 10 mg/kg): 6 days
Survival days ([1]; 30 mg/kg): 7 days
Activity % [1, 13]: 98%

O=C(NCCN1CCCC1)c1cc(-c2ccc(CN3CCOCC3)cc2)nc2ccc(F)cc12 [DDD107498]
Activity % ([1]; 3 mg/kg): 99%
Survival days ([1]; 3 mg/kg): 9 days
Activity % ([1]; 10 mg/kg): 99.0%
Survival days ([1]; 10 mg/kg): 14 days
Survival days ([1]; 30 mg/kg): 23 days
Activity % [1, 13]: 99.1%
ED90 (90% reduction in parasitaemia) ([1]; single oral dose, mice infected with P. berghei): 0.57 mg/kg
protein binding [3]: low protein binding
IC50 ([4]; DD2, read-out: DDD107498 IC50, WT Dd2): 0.14 nM
IC50 ([4]; read-out: DDD107498 IC50, high-level resistant line EF2-L775F): 660 nM
IC50 ([4]; read-out: DDD107498 IC50, high-level resistant line EF2-Y186N): 3100 nM
IC50 ([4]; read-out: DDD107498 IC50, low-level resistant line EF2-E134D): 5.8 nM
mutagenicity (Mutagenicity): non-mutagenic
EC50 [5]: 0.51 nM
MPC, chemoprotection [6]: 15 to 20 ng/mL
EC99 against 3D7 parasites ([7]; P. falciparum 3D7, n=39): 5.9 nM
EC50 ([7]; Plasmodium falciparum, 3D7, read-out: EC50 against 3D7 parasites): 1 nM
EC90 ([7]; Plasmodium falciparum, 3D7, read-out: EC90 against 3D7 parasites): 2.4 nM
CI (Mouse pharmacokinetics): 12 mL/min/g
EC50 [8]: ~1 nM
lag before killing (effects reversible following wash-out) (P. falciparum; 10 × EC50): 24 to 48 h
concentration sufficient to produce maximal killing effects (P. falciparum; tested at 0.1, 0.3, 1, 3 and 10 × EC50): ≥ 1 × EC50
CI (Dog pharmacokinetics): 30 mL/min/g
EC50 (P. berghei ookinetes): 5 nM
TB effect- sporozoite intensity (P. berghei (PbGFPCON507); 3 mg/kg oral): 93.8%
TB effect- sporozoite prevalence (P. berghei (PbGFPCON507); 3 mg/kg oral): 88.6%
reduction in infected mosquitoes (TB effect- oocyst prevalence) (P. berghei (PbGFPCON507); 3 mg/kg oral, day 10): 90.7%
reduction in oocysts per midgut (TB effect- oocyst intensity) (P. berghei (PbGFPCON507); 3 mg/kg oral, day 10): 98.8%
Inhibition in infection of naïve mice (P. berghei (PbGFPCON507); 3 mg/kg oral, multiple mosquito biting rates): 89.5%
Effect size (P. berghei (PbGFPCON507); chain binomial model, reduction of R0, 100% coverage): 90.5%
selectivity, human cells (MRC5 and Hep-G2) over parasite [9]: > 20,000 fold
minimum parasiticidal concentration (MPC) ([10]; asexual blood stage infections, blood of infected SCID mice): 10 to 13 ng/mL
ED90 on day 7 after infection ([10]; dosed orally daily for 4 days, SCID mice, P. falciparum): 0.95 mg/kg per day
EC50 ([11]; read-out: Range of EC50, P. falciparum clinical isolates): 0.29 to 3.29 nM
EC50 ([11]; read-out: median EC50, P. falciparum clinical isolates): 0.81 nM
effect from the ring stage (P. falciparum NF54): formation of abnormal trophozoites
reduction in parasites, from the schizont stage (P. falciparum NF54): 98%
reduction in parasites, from the trophozoite stage (P. falciparum NF54): 50%
effect on DNA/RNA biosynthesis ([3H]-hypoxanthine incorporation) [2]: minimal effects
CI (Rat pharmacokinetics; Rat, Intravenous 1 mg/kg): 18 mL/min/g
bioavailability (Rat pharmacokinetics; [14]): 84%
half-life (Rat pharmacokinetics; [14]): 18 h
activity against drug-resistant strains [12]: almost equally active
EC50 (P. berghei liver stages; read-out: EC50, P. berghei liver stage, liver schizont forms): ~1 nM

C[C@H]1[C@H](OC(=O)CCC(=O)O)O[C@@H]2O[C@@]3(C)CC[C@H]4[C@H](C)CC[C@@H]1[C@@]24OO3 [Artesunate]
Activity % ([1]; 3 mg/kg): <40%
Survival days ([1]; 3 mg/kg): 6 days
Activity % ([1]; 10 mg/kg): 75%
Survival days ([1]; 10 mg/kg): 6 days
Survival days ([1]; 30 mg/kg): 9 days

Cc1c2oc3c(C)ccc(C(=O)N[C@@H]4C(=O)N[C@H](C(C)C)C(=O)N5CCC[C@H]5C(=O)N(C)CC(=O)N(C)[C@@H](C(C)C)C(=O)O[C@@H]4C)c3nc-2c(C(=O)N[C@@H]2C(=O)N[C@H](C(C)C)C(=O)N3CCC[C@H]3C(=O)N(C)CC(=O)N(C)[C@@H](C(C)C)C(=O)O[C@@H]2C)c(N)c1=O [actinomycin D] (I: T[dV]P[Sar][NMeV] / II: T[dV]P[Sar][NMeV]; ester I:1-I:C, II:1-II:C; linker I:N-II:N via Actinocin(9to1))
effect on DNA/RNA biosynthesis ([3H]-hypoxanthine incorporation) [2]: significant dose-dependent reduction

O=C1C(O)=C([C@H]2CC[C@H](c3ccc(Cl)cc3)CC2)C(=O)c2ccccc21 [Atovaquone, reference compound]
EC50 (P. berghei liver stages; read-out: EC50, P. berghei liver stage, continuous treatment): 0.3 nM
